Here are results for 1 compound from US8921124B2, “Pyrazole-based cyanine dye” (Wako Pure Chemical Industries, Ltd., priority 2006, dated 2014).

Molecules are shown by their SMILES.

Series [1] is described as follows: Relative fluorescence intensity, roughly calculated relative to Cy5 per 1 μM as 100. Format: physicochemical. The protocol: Relative fluorescence intensity of a compound of the present invention was roughly calculated relative to fluorescence intensity of Cy5, which is a conventional cyanine dye.
First, fluorescence intensity of Cy5 per 1 μM was measured from fluorescence intensity of Cy5, and relative fluorescence intensity of the compound of the present invention was roughly calculated relative to this fluorescence intensity value as 100.
(§1) Into 1 mL of purified water, Cy5 for labeling 1 mg of protein (manufactured by GE Healthcare Bioscience Biohealth Co., Ltd.), was dissolved. This solution was diluted 200 times with a 50 mM phosphoric acid buffer solution (pH 7.5) to measure OD value (0.1020).
(§2) Concentration of a Cy5 solution was determined from this OD value and molar absorption coefficient (ε=250,000), [described in a general product catalogue 2006 “7-4” of GE Healthcare Bioscience Co., Ltd.]), (0.408 μM). Then fluorescence was measured using the present solution.
Relative fluorescence intensities of the compounds (13), (21), (32) and (38) of the present invention were roughly estimated relative to fluorescence intensity of Cy5 per 1 μM, obtained in Example 8, (1), as 100.
Relative fluorescence intensity of a compound of the present invention was roughly calculated based on fluorescence intensity of Cy5, which is a conventional cyanine dye derivative.
First, fluorescence intensity of Cy5 per 1 μM was measured from fluorescence intensity of Cy5, and relative fluorescence intensity of the compound of the present invention was roughly calculated based on this fluorescence intensity value as 100.
Into 1 mL of purified water, Cy5 (manufactured by GE Healthcare Bioscience Biohealth Co., Ltd.) for labeling 1 mg of protein, was dissolved. This solution was diluted 200 times with a 50 mM phosphoric acid buffer solution (pH 7.5) to measure OD value (0.1020).
Concentration of a Cy5 solution was determined from this OD value and molar absorption coefficient (E=250,000, [described in a general product catalogue 2006 “7-4” of GE Healthcare Bioscience Co., Ltd.]), (0.408 μM).
Then fluorescence of Cy5 was measured using the present solution.
Relative fluorescence intensity of the compound (40) of the present invention, obtained in Example 11 and the compound (43) of the present invention, obtained in Example 12 were roughly calculated, relative to fluorescence intensity per 1 μM of Cy5, obtained in Example 14, (1), as 100.

The nature of series [2]: Fluorescence characteristics (max. absorption, excitation and fluorescence wavelengths, molar absorption coefficient). Format: physicochemical. The method, then: Fluorescence characteristics are shown below.
as §1, §2

For series [3] the following is noted: described in general product catalogue 2006 of GE Healthcare Bioscience; in M-1cm-1; cited from earlier work.
[4] abbreviates: Cy5 solution 0.408 μM in 50 mM phosphoric acid buffer solution (pH 7.5).
Where [5] appears, read: 0.408 μM solution in 50 mM phosphoric acid buffer solution (pH 7.5).

On to `CCN1/C(=C/C=C/C=C/C2=[N+](CCCCCC(=O)O)c3ccc(S(=O)(=O)O)cc3C2(C)C)C(C)(C)c2cc(S(=O)(=O)[O-])ccc21` [Cy5], for which the Fluorescence intensity in series [1] (setting [4]) was 3,161. In addition, the “Fluorescence intensity of Cy5/1 μM” value in series [1] (per 1 μM, from intensity at 0.408 μM) was 7,747; in series [1] (per 1 μM, from the intensity of the 0.408 μM solution) it was 7,747. In addition, the “Relative fluorescence intensity [relative to fluorescence intensity of Cy5 (1 μM) as 100]” value in series [1] (roughly calculated, Cy5 per 1 μM = 100) was 100; in series [1] (roughly calculated; Cy5 per 1 μM = 100), 100. Besides, the “Max. excitation wavelength [Ex(max)]” value in series [2] (setting [5]) and in series [2] (setting [4]) was 649 nm in each case. Besides, the “Max. fluorescence wavelength [Em(max)]” value in series [2] (setting [5]) and in series [2] (setting [4]) was 670 nm throughout. Further, in series [3], the “molar absorption coefficient (ε)” value was 250,000.
